Reference: publication PMC4401734, “The Crystal Structure of D-Threonine Aldolase from Alcaligenes xylosoxidans Provides Insight into a Metal Ion Assisted PLP-Dependent Mechanism” (PLoS ONE, 2015)

Tests used:
[1] = target: T1, AxDTA; D-threonine aldolase from Alcaligenes xylosoxidans (Achromobacter xylosoxidans, UniProt A0A0J9X243); experiment: X-ray crystallography, […] Å; assay type: binding; details: active site; two alternate conformations: covalent (internal aldimine with Lys59, ~40% occupancy) and non-covalent (~60%); Mn2+ nearby; crystals at pH 8.1
T1 construct: full-length, residues 1-379, cloned from genomic DNA into pET101/D-TOPO with native TGA stop (degenerate reverse primer), no tag; E. coli BL21 Star (DE3); treated by reductive lysine methylation before crystallisation (no methylation seen in density); residues 1-6 (A) and 1-7 (B) disordered; dimer in crystal
T1 sequence (A0A0J9X243 1-379): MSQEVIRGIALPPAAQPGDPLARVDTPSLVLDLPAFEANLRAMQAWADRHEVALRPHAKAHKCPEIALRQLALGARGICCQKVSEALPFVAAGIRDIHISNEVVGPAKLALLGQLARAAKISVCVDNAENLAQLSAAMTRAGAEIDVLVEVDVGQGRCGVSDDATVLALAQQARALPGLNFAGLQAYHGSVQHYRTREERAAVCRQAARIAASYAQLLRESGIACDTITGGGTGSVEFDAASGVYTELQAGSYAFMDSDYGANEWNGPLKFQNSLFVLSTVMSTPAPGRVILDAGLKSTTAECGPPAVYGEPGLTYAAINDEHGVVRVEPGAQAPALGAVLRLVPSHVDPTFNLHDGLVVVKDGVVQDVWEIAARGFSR

[2] = target: D-threonine aldolase from Alcaligenes xylosoxidans (Alcaligenes xylosoxidans IFO 12669); experiment: crystal structure; X-ray, 1.5 Å, space group P2(1), two molecules per asymmetric unit; crystals from 200 mM sodium chloride, 100 mM Tris/HCl pH 8.1, 13% (w/v) PEG-3350

stoichiometry N [2]	Molecule	X-ray crystallography, 1.5 Å [1]
	Cc1ncc(COP(=O)(O)O)c(C=O)c1O [PLP, pyridoxal phosphate]	modeled by a molecule of pyridoxal phosphate (PLP) in two alternate conformations: covalently linked to Lys59
2	D-threonine aldolase from Alcaligenes xylosoxidans (enzyme)	
